Results: US9107415B2, “2-(substituted-phenyl)-cyclopentane-1,3-dione compounds, and derivatives thereof” (Syngenta Limited, priority 2011, dated 2015)

What was measured:
Format in all cases: in vivo
[1] = test system: Alopecurus myosuroides (ALOMY); experiment: Biological Example 1 glasshouse screen, post-emergence herbicidal activity; settings: 312 h, application rate 250 g/ha, evaluated after 13 days, read-out: ALOMY percentage phytotoxicity
Method in brief: (§1)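 Read-out: visual percentage phytotoxicity at 13 days, 0% no damage to 100% total damage. Spray solution of unformulated compound in 50:50 acetone/water plus 0.5% Tween 20, applied to potted plants one day after sowing (pre) or after 8 days' growth (post).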

[2] = test system: Echinochloa crus-galli (ECHCG); experiment: as above; settings: 312 h, application rate 250 g/ha, evaluated after 13 days, read-out: ECHCG percentage phytotoxicity
Method in brief: as §1

[3] = test system: Alopecurus myosuroides (ALOMY); experiment: Biological Example 1 glasshouse screen, pre-emergence herbicidal activity; settings: 312 h, application rate 250 g/ha, evaluated after 13 days, read-out: ALOMY percentage phytotoxicity
Method in brief: as §1

[4] = test system: Echinochloa crus-galli (ECHCG); experiment: as above; settings: 312 h, application rate 250 g/ha, evaluated after 13 days, read-out: ECHCG percentage phytotoxicity
Method in brief: as §1

[5] = test system: Triticum aestivum, wheat (TRZAW); experiment: Biological Example 3 glasshouse screen, post-emergence, phytotoxicity on wheat; settings: 360 h, 15 DAA, no safener, read-out: TRZAW percentage phytotoxicity
Method in brief: (§2)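 Selectivity screen without safener: 12-day-old plants sprayed post-emergence with acetone/IF50-formulated compound plus 0.2% v/v X-77, kept in glasshouse, visually rated for % injury 15 days after application.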

[6] = test system: Solanum nigrum (SOLNI); experiment: Biological Example 1 glasshouse screen, pre-emergence herbicidal activity; settings: application rate 250 g/ha, evaluated after 13 days
Protocol: (§3) Seeds of a variety of test species were sown in standard soil in pots. After cultivation for one day (pre-emergence) or after 8 days cultivation (post-emergence) under controlled conditions in a glasshouse (at 24/16°C., day/night; 14 hours light; 65% humidity), the plants were sprayed with an aqueous spray solution derived from the formulation of the “technical”(i.e. unformulated) active ingredient in acetone/water (50:50) solution containing 0.5% Tween 20 (polyoxyethylene sorbitan monolaurate, CAS Registry Number 9005-64-5). The test plants were then grown in a glasshouse under controlled conditions in a glasshouse (at 24/16°C., day/night; 14 hours light; 65% humidity) and watered twice daily. After 13 days for pre- or post-emergence, the test was evaluated visually, and an assessed percentage phytotoxicity score given for each herbicidal application on each plant/weed species (with 100%=total damage to plant; 0%=no damage to plant).
(§4) Test plants: Alopecurus myosuroides (ALOMY), Setaria faberi (SETFA), Echinochloa crus-galli (ECHCG), Solanum nigrum (SOLNI), Amaranthus retroflexus (AMARE) and Ipomoea hederacea (IPOHE). ALOMY, SETFA and ECHCG are grassy monocotyledonous weeds. SOLNI, AMARE and IPOHE are dicotyledonous (broadleaved) weeds.

[7] = test system: Setaria faberi (SETFA); experiment: as above; settings: application rate 250 g/ha, evaluated after 13 days
Protocol: as §3, §4

[8] = test system: Amaranthus retroflexus (AMARE); experiment: as above; settings: application rate 250 g/ha, evaluated after 13 days
Protocol: as §3, §4

[9] = test system: Ipomoea hederacea (IPOHE); experiment: as above; settings: application rate 250 g/ha, evaluated after 13 days
Protocol: as §3, §4

[10] = test system: Lolium perenne, perennial ryegrass (LOLPE); experiment: Biological Example 3 glasshouse screen, post-emergence herbicidal activity; settings: 360 h, 15 DAA, no safener, read-out: LOLPE percentage phytotoxicity
Method in brief: as §2

[11] = test system: Echinochloa crus galli, barnyardgrass (ECHCG); experiment: as above; settings: 360 h, 15 DAA, no safener, read-out: ECHCG percentage phytotoxicity
Method in brief: as §2

[12] = test system: Avena fatua, wild oats (AVEFA); experiment: as above; settings: 360 h, 15 DAA, no safener, read-out: AVEFA percentage phytotoxicity
Method in brief: as §2

[13] = test system: Alopecurus myosuroides, blackgrass (ALOMY); experiment: as above; settings: 360 h, 15 DAA, no safener, read-out: ALOMY percentage phytotoxicity
Method in brief: as §2

[14] = test system: Setaria faberi (SETFA); experiment: Biological Example 2 post-emergence herbicidal activity (comparative data)
Protocol: as §3
(§5) Comparative herbicidal data are given for certain exemplified compounds with 4-(prop-1-ynyl)-2,6-dimethylphenyl or 4-(chloroethynyl)-2,6-dimethylphenyl headgroups, compared to the corresponding comparative compounds with 4-ethynyl-2,6-dimethylphenyl headgroups, as follows.
(§6) Except where specified otherwise, the glasshouse screen for herbicidal activity is substantially the same as that presented in Biological Example 1 hereinabove. The weed abbreviations are as defined in Biological Example 1.

[15] = test system: Alopecurus myosuroides (ALOMY); experiment: as above; settings: 312 h, read-out: ALOMY percentage phytotoxicity; for pest or weed control at 15.625 g/ha: 15.625 g/ha application rate; for pest or weed control at 62.5 g/ha: 62.5 g/ha application rate
Protocol: as §3, §5, §6

[16] = test system: Echinochloa crus-galli (ECHCG); experiment: as above; settings: 312 h, read-out: ECHCG percentage phytotoxicity; for pest or weed control at 15.625 g/ha: 15.625 g/ha application rate; for pest or weed control at 62.5 g/ha: 62.5 g/ha application rate
Protocol: as §3, §5, §6

[17] = test system: Solanum nigrum (SOLNI); experiment: Biological Example 1 glasshouse screen, post-emergence herbicidal activity; settings: application rate 250 g/ha, evaluated after 13 days
Protocol: as §3, §4

[18] = test system: Setaria faberi (SETFA); experiment: as above; settings: application rate 250 g/ha, evaluated after 13 days
Protocol: as §3, §4

[19] = test system: Amaranthus retroflexus (AMARE); experiment: as above; settings: application rate 250 g/ha, evaluated after 13 days
Protocol: as §3, §4

[20] = test system: Ipomoea hederacea (IPOHE); experiment: as above; settings: application rate 250 g/ha, evaluated after 13 days
Protocol: as §3, §4

Compound | pest or weed control at 250 g/ha [1] | pest or weed control at 250 g/ha [2] | pest or weed control at 250 g/ha [3] | pest or weed control at 250 g/ha [4] | SOLNI percentage phytotoxicity [6] | SEFTA percentage phytotoxicity [7] | AMARE percentage phytotoxicity [8] | IPOHE percentage phytotoxicity [9] | SETFA percentage phytotoxicity ([14]; 15.625 g/ha application rate) | SETFA percentage phytotoxicity ([14]; 62.5 g/ha application rate) | pest or weed control at 15.625 g/ha [15] | pest or weed control at 62.5 g/ha [15] | pest or weed control at 15.625 g/ha [16] | pest or weed control at 62.5 g/ha [16] | SOLNI percentage phytotoxicity [17] | SEFTA percentage phytotoxicity [18] | AMARE percentage phytotoxicity [19] | IPOHE percentage phytotoxicity [20] | further results
CC#Cc1cc(C)c(C2C(=O)C3C(C2=O)[C@H]2CC[C@@H]3O2)c(C)c1 (mixture of isomers) [Compound A-18, (1RS,2SR,6RS,7SR)-4-(2,6-dimethyl-4-prop-1-ynylphenyl)-10-oxatricyclo[5.2.1.0^2,6]decane-3,5-dione] | 100% | 100% | 100% | 100% | 80% | 100% | 100% | 80% | 70% | 90% | 90% | 100% | 100% | 100% | 80% | 100% | 30% | 80% | pest or weed control at 8 g/ha ([5]; application rate 8 g/ha): 40%; pest or weed control at 8 g/ha ([10]; application rate 8 g/ha): 80%; pest or weed control at 8 g/ha ([11]; application rate 8 g/ha): 80%; pest or weed control at 8 g/ha ([12]; application rate 8 g/ha): 30%; pest or weed control at 8 g/ha ([13]; application rate 8 g/ha): 70%
CC#Cc1cc(C)c(C2=C(O)CCC2=O)c(C)c1 [Compound A-1, 2-(2,6-Dimethyl-4-prop-1-ynylphenyl)cyclopentane-1,3-dione] | 90% | 100% | 100% | 100% | 0% | 80% | 0% | 0% | 40% | 60% | 20% | 80% | 70% | 100% | 10% | 70% | 0% | 30% | pest or weed control at 125 g/ha ([5]; application rate 125 g/ha): 40%; pest or weed control at 125 g/ha ([10]; application rate 125 g/ha): 50%; pest or weed control at 125 g/ha ([11]; application rate 125 g/ha): 80%; pest or weed control at 125 g/ha ([12]; application rate 125 g/ha): 0%; pest or weed control at 125 g/ha ([13]; application rate 125 g/ha): 70%
Cc1cc(C#CCl)cc(C)c1C1C(=O)CCC1=O [Compound A-16] | 50% | 100% | 50% | 100% | 10% | 90% | 40% | 0% | 0% | 80% | 10% | 10% | 70% | 90% | 20% | 70% | 10% | 10% | –
Cc1cc(C#CCl)cc(C)c1C1C(=O)C2C(C1=O)[C@H]1CC[C@@H]2O1 (stereo partly shown) [Compound A-17] | 80% | 100% | 80% | 100% | 80% | 100% | 100% | 80% | 80% | 80% | 60% | 70% | 100% | 100% | 70% | 90% | 10% | 70% | –
Cc1cc(C#CCl)cc(C)c1C1=C(O)CC(Cc2ccccn2)C1=O (racemic) [Compound A-3, rac-2-(4-Chloroethynyl-2,6-dimethylphenyl)-4-(pyridin-2-ylmethyl)cyclopentane-1,3-dione] | 90% | 100% | 90% | 100% | 90% | 100% | 90% | 70% | 80% | 90% | 90% | 90% | 100% | 100% | 70% | 100% | 60% | 30% | –
